Experiments:
[1] = test system: hMCP-1 mRNA; test: Inhibition of hMCP-1 mRNA transcription in human peripheral blood mononuclear cells; type: cell-based; set-up: key: Active: Compounds with an IC50 value less than 30 μM were deemed to be active.; Not Active: Compounds with an IC50 value less than 30 μM were deemed to be active; details: 3 h
Description: In this example, hMCP-1 mRNA in human peripheral blood mononuclear cells was quantitated to measure the transcriptional inhibition of hMCP-1 when treated with a compound of the present disclosure.
Human Peripheral Blood Mononuclear Cells were plated (1.0×10^5 cells per well) in a 96-well plate in 45 μL RPMI-1640 containing 10% FBS and penicillin/streptomycin. The cells were treated with the test compound (45 μL at 2× concentration), and then the cells were incubated at 37° C. for 3 h before the cells were harvested. At time of harvest, cells were transferred to V-bottom plates and centrifuged at 800 rpm for 5 minutes. Spent media was removed and cell lysis solution (70 μL) was added the cells in each well and incubated for 5-10 min at room temperature, to allow for complete cell lysis and detachment. mRNA was then prepared using the “mRNA Catcher PLUS plate” (Invitrogen), according to the protocol supplied. After the last wash, as much wash buffer as possible was aspirated without allowing the wells to dry. […]
The eluted mRNA isolated was then used in a one-step quantitative real-time PCR reaction, using components of the Ultra Sense Kit together with Applied Biosystems primer-probe mixes. Real-time PCR data was analyzed, normalizing the Ct values for hMCP-1 to an internal control, prior to determining the fold induction of each unknown sample, relative to the control.

[2] = test system: c-myc; test: Inhibition of c-myc expression in cancer cell lines (mRNA, real-time PCR); type: cell-based; set-up: key: Active: Compounds with an IC50 value less than 30 μM were deemed to be active; details: Human AML MV4-11 cells, 3 hours
In short: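 MV4-11 cells (2.5×10^4) exposed to compound or 0.1% DMSO for 3 h at 37° C, then lysed for mRNA isolation. c-myc and cyclophilin cDNAs co-amplified by duplex RT real-time PCR. IC50 from dose-response curve.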

[3] = test system: hApoA-1 mRNA; test: Up-regulation of hApoA-1 mRNA transcription in Huh7 cells; type: cell-based, human; set-up: key: Active: Compounds with an EC170 value less than 30 μM are deemed to be active.; Not Active: Compounds with an EC170 value less than 30 μM are deemed to be active; details: 48 hrs treatment, ApoA-I mRNA
In short: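 Huh7 cells plated 24 h before compound, then treated 48 h; mRNA isolated from lysates and ApoA-I quantified by one-step real-time PCR. Fold induction derived from Ct values relative to the matching DMSO control; EC170 reported as activity measure.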

COc1cc(OC)c2c(=O)[nH]c(-c3ccc(OCCNC(C)C)c(-c4ccc([S+](C)[O-])cc4)n3)nc2c1 (stereo not drawn) [Example 41, 2-(5-(2-(Isopropylamino)ethoxy)-6-(4-(methylsulfinyl)phenyl)pyridin-2-yl)-5,7-dimethoxyquinazolin-4(3H)-one]
Active: MCP-1 Activity (IC50 < 30 μM) [1] | c-myc activity (IC50 < 30 μM) [2] | ApoA-1 Activity (EC170 < 30 μM) [3]
